Values belong to the compound of their own block, whether it stands above or below them.
Assays:
[1] = target: Sodium/hydrogen exchanger 3 (Rattus norvegicus, UniProt P26433); assay: Inhibition of rat NHE-3
[2] = AUC in Sprague-Dawley rat at 1.5 mg/kg administered via oral gavage measured up to 4 hrs by LC/MS/MS analysis; assay type: ADME, organism-based; parameters: time < 4 hr, dose 1.5 mg/kg, route oral; conditions: in vivo
[3] = Cmax in Sprague-Dawley rat at 1.5 mg/kg administered via oral gavage measured up to 4 hrs by LC/MS/MS analysis; assay type: ADME, organism-based; parameters: dose 1.5 mg/kg, route oral; conditions: in vivo
[4] = target: Sodium/hydrogen exchanger 1 (Homo sapiens, UniProt P19634); assay: Inhibition of NHE-1 (unknown origin)
Sequence of Sodium/hydrogen exchanger 1 (P19634 whole entry): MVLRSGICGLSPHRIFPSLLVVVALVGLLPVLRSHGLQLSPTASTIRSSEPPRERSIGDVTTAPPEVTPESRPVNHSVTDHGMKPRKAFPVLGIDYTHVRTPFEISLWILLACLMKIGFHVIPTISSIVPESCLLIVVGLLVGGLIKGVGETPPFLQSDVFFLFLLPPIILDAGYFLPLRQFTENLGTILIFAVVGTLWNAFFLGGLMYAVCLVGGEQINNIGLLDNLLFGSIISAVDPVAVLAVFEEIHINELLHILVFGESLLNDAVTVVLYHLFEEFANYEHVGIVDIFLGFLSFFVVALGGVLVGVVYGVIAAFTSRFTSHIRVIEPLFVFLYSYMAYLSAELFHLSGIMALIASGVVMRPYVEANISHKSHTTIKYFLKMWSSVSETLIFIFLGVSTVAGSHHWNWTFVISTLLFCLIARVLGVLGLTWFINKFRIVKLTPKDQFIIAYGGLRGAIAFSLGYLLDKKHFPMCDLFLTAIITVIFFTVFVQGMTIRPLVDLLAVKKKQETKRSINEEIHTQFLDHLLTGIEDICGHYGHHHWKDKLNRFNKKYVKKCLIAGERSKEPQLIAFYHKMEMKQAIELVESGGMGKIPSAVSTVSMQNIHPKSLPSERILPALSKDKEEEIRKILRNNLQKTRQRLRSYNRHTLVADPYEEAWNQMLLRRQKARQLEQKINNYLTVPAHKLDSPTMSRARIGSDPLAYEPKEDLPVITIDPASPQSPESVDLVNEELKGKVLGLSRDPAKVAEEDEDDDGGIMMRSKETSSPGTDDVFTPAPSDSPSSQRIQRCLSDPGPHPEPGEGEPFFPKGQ

[5] = target: T1, Sodium/hydrogen exchanger 2 (Oryctolagus cuniculus, UniProt P50482); assay: Inhibition of rabbit NHE-2
T1 sequence (P50482 whole entry): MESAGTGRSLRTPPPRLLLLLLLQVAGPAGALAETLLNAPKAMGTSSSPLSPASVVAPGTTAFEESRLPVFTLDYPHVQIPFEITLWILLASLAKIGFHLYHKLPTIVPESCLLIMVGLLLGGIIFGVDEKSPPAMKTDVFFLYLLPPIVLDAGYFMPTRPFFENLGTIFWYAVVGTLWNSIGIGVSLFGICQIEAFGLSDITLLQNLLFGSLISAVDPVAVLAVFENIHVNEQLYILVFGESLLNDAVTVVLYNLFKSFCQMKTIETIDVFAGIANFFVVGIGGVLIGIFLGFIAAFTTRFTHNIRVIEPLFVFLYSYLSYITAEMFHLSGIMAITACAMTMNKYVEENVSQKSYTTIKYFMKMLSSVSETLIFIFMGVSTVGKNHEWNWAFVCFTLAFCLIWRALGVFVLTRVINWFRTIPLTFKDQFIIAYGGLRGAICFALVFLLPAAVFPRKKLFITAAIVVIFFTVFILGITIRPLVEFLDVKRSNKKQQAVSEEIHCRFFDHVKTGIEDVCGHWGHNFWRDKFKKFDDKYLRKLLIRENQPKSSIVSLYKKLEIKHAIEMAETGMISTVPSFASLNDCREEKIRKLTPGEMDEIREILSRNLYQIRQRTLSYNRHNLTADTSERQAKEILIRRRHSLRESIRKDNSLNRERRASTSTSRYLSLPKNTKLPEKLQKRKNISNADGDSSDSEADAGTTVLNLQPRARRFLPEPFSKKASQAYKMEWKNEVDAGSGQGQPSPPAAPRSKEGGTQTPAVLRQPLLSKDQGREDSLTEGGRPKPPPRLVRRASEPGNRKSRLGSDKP

[6] = target: T2, Sodium/hydrogen exchanger 3 (Homo sapiens, UniProt P48764); assay: Inhibition of NHE-3 (unknown origin)
T2 sequence (P48764 whole entry): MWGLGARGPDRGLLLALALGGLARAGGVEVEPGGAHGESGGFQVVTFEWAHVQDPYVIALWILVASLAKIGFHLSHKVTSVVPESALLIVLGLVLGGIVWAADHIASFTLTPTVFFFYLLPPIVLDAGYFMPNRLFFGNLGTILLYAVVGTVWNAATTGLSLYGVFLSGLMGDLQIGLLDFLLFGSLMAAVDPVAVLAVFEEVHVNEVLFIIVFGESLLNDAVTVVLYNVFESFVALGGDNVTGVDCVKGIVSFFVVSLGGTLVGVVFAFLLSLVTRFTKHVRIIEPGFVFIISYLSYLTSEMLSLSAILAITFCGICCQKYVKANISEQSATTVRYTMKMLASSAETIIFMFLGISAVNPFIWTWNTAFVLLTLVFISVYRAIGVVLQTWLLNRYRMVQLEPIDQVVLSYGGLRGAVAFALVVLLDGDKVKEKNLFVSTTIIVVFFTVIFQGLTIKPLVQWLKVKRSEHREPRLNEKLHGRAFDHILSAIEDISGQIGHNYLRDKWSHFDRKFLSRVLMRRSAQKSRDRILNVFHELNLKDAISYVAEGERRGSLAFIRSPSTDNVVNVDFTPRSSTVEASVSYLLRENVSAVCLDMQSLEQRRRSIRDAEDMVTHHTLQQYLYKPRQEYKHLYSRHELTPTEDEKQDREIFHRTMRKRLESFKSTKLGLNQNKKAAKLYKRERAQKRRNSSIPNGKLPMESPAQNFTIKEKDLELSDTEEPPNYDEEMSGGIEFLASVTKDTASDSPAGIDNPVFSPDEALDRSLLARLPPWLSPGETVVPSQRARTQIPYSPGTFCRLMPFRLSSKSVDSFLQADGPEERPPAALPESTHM

[7] = AUC in Sprague-Dawley rat at 21 mg/kg administered via oral gavage measured up to 4 hrs by LC/MS/MS analysis; assay type: ADME, organism-based; parameters: dose 21 mg/kg, time < 4 hr, route oral; conditions: in vivo
[8] = Cmax in Sprague-Dawley rat at 21 mg/kg administered via oral gavage measured up to 4 hrs by LC/MS/MS analysis; assay type: ADME, organism-based; parameters: dose 21 mg/kg, route oral; conditions: in vivo
[9] = Cmax in Sprague-Dawley rat at 27 mg/kg administered via oral gavage measured up to 4 hrs by LC/MS/MS analysis; assay type: ADME, organism-based; parameters: dose 27 mg/kg, route oral; conditions: in vivo
[10] = AUC in Sprague-Dawley rat at 27 mg/kg administered via oral gavage measured up to 4 hrs by LC/MS/MS analysis; assay type: ADME, organism-based; parameters: time < 4 hr, dose 27 mg/kg, route oral; conditions: in vivo

Sequence of Sodium/hydrogen exchanger 3 (Rattus norvegicus, UniProt P26433) (P26433 whole entry): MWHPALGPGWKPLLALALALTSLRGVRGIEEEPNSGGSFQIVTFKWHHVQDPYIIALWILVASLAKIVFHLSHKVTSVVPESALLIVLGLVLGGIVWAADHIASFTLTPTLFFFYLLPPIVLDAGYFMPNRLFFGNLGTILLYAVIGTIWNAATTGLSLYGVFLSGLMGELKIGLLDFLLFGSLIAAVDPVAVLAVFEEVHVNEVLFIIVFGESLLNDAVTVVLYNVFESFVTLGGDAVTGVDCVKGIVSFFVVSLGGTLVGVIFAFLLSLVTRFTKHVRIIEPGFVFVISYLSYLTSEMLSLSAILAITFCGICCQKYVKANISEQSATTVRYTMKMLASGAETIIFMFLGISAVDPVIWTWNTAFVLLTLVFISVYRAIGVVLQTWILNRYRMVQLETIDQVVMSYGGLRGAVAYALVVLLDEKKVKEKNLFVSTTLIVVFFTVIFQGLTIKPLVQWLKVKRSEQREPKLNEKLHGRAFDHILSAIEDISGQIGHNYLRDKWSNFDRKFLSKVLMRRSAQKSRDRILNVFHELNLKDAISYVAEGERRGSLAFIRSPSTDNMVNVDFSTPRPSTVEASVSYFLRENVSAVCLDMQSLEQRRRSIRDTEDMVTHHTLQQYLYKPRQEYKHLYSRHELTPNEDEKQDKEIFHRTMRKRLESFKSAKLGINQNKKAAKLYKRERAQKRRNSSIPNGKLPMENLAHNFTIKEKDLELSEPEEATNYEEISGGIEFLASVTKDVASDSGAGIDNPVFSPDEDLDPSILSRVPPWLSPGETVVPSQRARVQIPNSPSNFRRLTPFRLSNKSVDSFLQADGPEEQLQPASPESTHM

IC50 [1]: > 500 µM
SMILES: N=C(N)NC(=O)c1cnn(-c2cccc3ncccc23)c1C1CC1 [ZONIPORIDE]

AUC at 4 h [2]: < 4.4 ng·h/mL
Cmax [3]: < 2.7 ng/mL
SMILES: C/C(=C\c1cc(F)c(Oc2ccc(S(=O)(=O)NCCOCCOCCOCCNC(=O)[C@H](O)[C@@H](O)C(=O)NCCOCCOCCOCCNS(=O)(=O)c3ccc(Oc4c(F)cc(/C=C(\C)C(=O)N=C(N)N)cc4F)cc3)cc2)c(F)c1)C(=O)N=C(N)N

IC50 [4]: 3.6 µM
IC50 [5]: 80 µM
IC50 [6]: 0.02 µM
SMILES: C/C(=C\c1cc(C)ccc1/C=C(\C)C(=O)NC(=N)N)C(=O)N=C(N)N

AUC at 4 h [7]: < 2 ng·h/mL
Cmax [8]: < 2 ng/mL
SMILES: CN1Cc2c(Cl)cc(Cl)cc2C(c2cccc(S(=O)(=O)NCCOCCOCCOCCNC(=O)Nc3ccc(NC(=O)NCCOCCOCCOCCNS(=O)(=O)c4cccc([C@@H]5CN(C)Cc6c(Cl)cc(Cl)cc65)c4)cc3)c2)C1 (mixture of isomers)

Cmax [9]: < 3.5 ng/mL
AUC at 4 h [10]: < 5.3 ng·h/mL
SMILES: CN1Cc2c(Cl)cc(Cl)cc2[C@H](c2ccc(S(=O)(=O)NCCOCCOCCOCCNC(=O)C(O)C(O)C(=O)NCCOCCOCCOCCNS(=O)(=O)c3ccc([C@@H]4CN(C)Cc5c(Cl)cc(Cl)cc54)cc3)cc2)C1 (single isomer, unassigned)

— ChEMBL document CHEMBL3881530, “Compounds and methods for inhibiting NHE-mediated antiport in the treatment of disorders associated with fluid retention or salt overload and gastrointestinal tract disorders” (2013)
